How the values were obtained:
[1] = system: LPS-stimulated TNFα release from PBMCs; assay: LPS-stimulated PBMC TNFα release assay; type: cell-based; conditions: inhibition of TNFα release, human PBMCs, LPS 10 ng/ml, 18 h, ELISA, read-out: p38α inhibition (IC50 values)
Description: LPS-Stimulated PBMC TNFα Release Assay.
Peripheral Blood Mononuclear Cells (PBMCs) were isolated from healthy human volunteer blood using a standard density gradient centrifugation technique. Citrated blood was placed onto Histopaque™ and centrifuged. The PBMCs were removed from the density gradient interface and washed in phosphate buffered saline (PBS). The PBMCs were suspended in RPMI 1640 medium (without serum), dispensed into a 96-well plate and incubated at 37° C. for 3 h in a humidified incubator. After incubation, the medium was replaced (with medium containing 1% foetal bovine serum) and the plate incubated at 37° C., for 1 h, in the presence of test compound or the appropriate vehicle. LPS (10 ng/ml), or an appropriate vehicle control, was then added to the cells and the plate returned to the incubator for 18 h. Cell-free supernatants were removed and assayed for TNFα levels using an ELISA kit from R&D Systems.
A dose response curve to each test compound was performed and the effect of compound in each experiment was expressed as a percentage inhibition of the control TNFα release. Dose response curves were plotted and compound potency (IC50) was determined. Compounds were tested in at least three separate experiments.

[2] = molecular target: T1, p38alpha (Homo sapiens, UniProt Q16539); assay: P38Alpha enzyme inhibition assay (Alphascreen kinase activity assay); type: biochemical; conditions: 100 pM p38alpha, 250 μM ATP, 2 hours pre-incubation at 25° C., read-out: p38α inhibition (IC50 values)
T1 construct: purchased Invitrogen PV3304
How it was run: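 AlphaScreen read-out: after an EDTA stop, an anti-phospho-ATF2 antibody with Protein A acceptor and donor beads measured substrate phosphorylation. Compounds sat 2 h at 25°C with 100 pM p38α and 0.3 µg/ml ATF-2 fusion protein (pH 7.5, 1% DMSO) before 250 µM ATP was added for 1 h. IC50 from dose-response.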

T1 sequence (Q16539 whole entry): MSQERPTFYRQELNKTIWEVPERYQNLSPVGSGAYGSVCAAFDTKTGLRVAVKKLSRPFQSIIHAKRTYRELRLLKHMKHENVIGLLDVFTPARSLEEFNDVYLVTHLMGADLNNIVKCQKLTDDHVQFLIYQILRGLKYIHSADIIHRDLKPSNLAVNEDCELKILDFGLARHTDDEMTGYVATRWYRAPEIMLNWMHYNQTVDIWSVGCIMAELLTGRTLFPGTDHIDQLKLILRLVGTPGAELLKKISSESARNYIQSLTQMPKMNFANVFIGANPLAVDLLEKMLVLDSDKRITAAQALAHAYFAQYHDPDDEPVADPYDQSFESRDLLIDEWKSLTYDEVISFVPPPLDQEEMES

SMILES | IC50 [1] [nM] | IC50 [2] [nM]
Cc1ccc(-n2nc(C(C)(C)C)cc2NC(=O)N[C@H]2CC[C@@H](Oc3ccc4nnc(N5CCC[C@H]5CO)n4c3)c3ccccc32)cc1 [Example 28, 1-(5-tert-Butyl-2-p-tolyl-2H-pyrazol-3-yl)-3-{(1S,4R)-4-[3-((S)-2-hydroxymethyl-pyrrolidin-1-yl)-[1,2,4]triazolo[4,3-a]pyridin-6-yloxy]-1,2,3,4-tetrahydro-naphthalen-1-yl}-urea] | < 10 | < 10
CC(C)(C)c1cc(NC(=O)N[C@H]2CC[C@@H](Oc3ccc4nnc(N5CCCCC5)n4c3)c3ccccc32)n(-c2cccc(CO)c2)n1 [Example 29, 1-[5-tert-Butyl-2-(3-hydroxymethyl-phenyl)-2H-pyrazol-3-yl]-3-[(1S,4R)-4-(3-piperidin-1-yl-[1,2,4]triazolo[4,3-a]pyridin-6-yloxy)-1,2,3,4-tetrahydro-naphthalen-1-yl]-urea] | < 10 | < 10
CCOC(=O)c1cccc(-n2nc(C(C)(C)C)cc2NC(=O)N[C@H]2CC[C@@H](Oc3ccc4nnc([C@@H]5CCCN5C)n4c3)c3ccccc32)c1 [Example 30, 3-[3-tert-Butyl-5-(3-{(1S,4R)-4-[3-((S)-1-methyl-pyrrolidin-2-yl)-[1,2,4]triazolo[4,3-a]pyridin-6-yloxy]-1,2,3,4-tetrahydro-naphthalen-1-yl}-ureido)-pyrazol-1-yl]-benzoic acid ethyl ester] | < 10 | < 10
CN1CCC[C@H]1c1nnc2ccc(O[C@@H]3CC[C@H](NC(=O)Nc4cc(C(C)(C)C)nn4-c4cccc(CO)c4)c4ccccc43)cn12 [Example 31, 1-[5-tert-Butyl-2-(3-hydroxymethyl-phenyl)-2H-pyrazol-3-yl]-3-{(1S,4R)-4-[3-((S)-1-methyl-pyrrolidin-2-yl)-[1,2,4]triazolo[4,3-a]pyridin-6-yloxy]-1,2,3,4-tetrahydro-naphthalen-1-yl}-urea] | < 10 | < 10
CN1CCC[C@H]1c1nnc2ccc(O[C@@H]3CC[C@H](NC(=O)Nc4cc(C(C)(C)C)nn4-c4ccc(CO)cc4)c4ccccc43)cn12 [Example 33, 1-[5-tert-Butyl-2-(4-hydroxymethyl-phenyl)-2H-pyrazol-3-yl]-3-{(1S,4R)-4-[3-((S)-1-methyl-pyrrolidin-2-yl)-[1,2,4]triazolo[4,3-a]pyridin-6-yloxy]-1,2,3,4-tetrahydro-naphthalen-1-yl}urea] | < 10 | < 10
CC(C)(C)c1cc(NC(=O)N[C@H]2CC[C@@H](Oc3ccc4nnc(N5CCCCC5)n4c3)c3ccccc32)n(-c2ccc(CO)cc2)n1 [Example 34, 1-[5-tert-Butyl-2-(4-hydroxymethyl-phenyl)-2H-pyrazol-3-yl]-3-[(1S,4R)-4-(3-piperidin-1-yl-[1,2,4]triazolo[4,3-a]pyridin-6-yloxy)-1,2,3,4-tetrahydro-naphthalen-1-yl]-urea] | < 10 | < 10
CN1CCC[C@H]1c1nnc2ccc(O[C@@H]3CC[C@H](NC(=O)Nc4cc(C(C)(C)C)nn4-c4cccc(SCCO)c4)c4ccccc43)cn12 [Example 35, 1-{5-tert-Butyl-2-[3-(2-hydroxy-ethylsulfanyl)-phenyl]-2H-pyrazol-3-yl}-3-{(1S,4R)-4-[3-((S)-1-methyl-pyrrolidin-2-yl)-[1,2,4]triazolo[4,3-a]pyridin-6-yloxy]-1,2,3,4-tetrahydro-naphthalen-1-yl}-urea] | < 10 | < 10
Cc1ccc(-n2nc(C(C)(C)CO)cc2NC(=O)N[C@H]2CC[C@@H](Oc3ccc4nnc(N5CCCCC5)n4c3)c3ccccc32)cc1 [Example 36, 1-[5-(2-Hydroxy-1,1-dimethyl-ethyl)-2-p-tolyl-2H-pyrazol-3-yl]-3-[(1S,4R)-4-(3-piperidin-1-yl-[1,2,4]triazolo[4,3-a]pyridin-6-yloxy)-1,2,3,4-tetrahydro-naphthalen-1-yl]-urea] | < 10 | < 10
CN1CCC[C@H]1c1nnc2ccc(O[C@H]3C[C@H](NC(=O)Nc4cc(C(C)(C)C)nn4-c4ccc(CO)cc4)c4ccccc43)cn12 [Example 37, 1-[5-tert-Butyl-2-(4-hydroxymethyl-phenyl)-2H-pyrazol-3-yl]-3-{(1S,3S)-3-[3-((S)-1-methyl-pyrrolidin-2-yl)-[1,2,4]triazolo[4,3-a]pyridin-6-yloxy]-indan-1-yl}-urea] | < 10 | < 10
Cc1ccc(-n2nc(C(C)(C)C)cc2NC(=O)N[C@H]2CC[C@@H](Oc3ccc4nnc(N5CC[C@@H](O)C5)n4c3)c3ccccc32)cc1 [Example 38, 1-(5-tert-Butyl-2-p-tolyl-2H-pyrazol-3-yl)-3-{(1S,4R)-4-[3-((R)-3-hydroxy-pyrrolidin-1-yl)-[1,2,4]triazolo[4,3-a]pyridin-6-yloxy]-1,2,3,4-tetrahydro-naphthalen-1-yl}-urea] | < 10 | < 10
CC(C)(C)c1cc(NC(=O)N[C@H]2CC[C@@H](Oc3ccc4nnc(N5CCCCC5)n4c3)c3ccccc32)n(-c2cccc(OCCO)c2)n1 [Example 39, 1-{5-tert-Butyl-2-[3-(2-hydroxy-ethoxy)-phenyl]-2H-pyrazol-3-yl}-3-[(1S,4R)-4-(3-piperidin-1-yl-[1,2,4]triazolo[4,3-a]pyridin-6-yloxy)-1,2,3,4-tetrahydro-naphthalen-1-yl]-urea] | < 10 | < 10
CN(C)CCOc1cccc(-n2nc(C(C)(C)C)cc2NC(=O)N[C@H]2CC[C@@H](Oc3ccc4nnc(N5CCCCC5)n4c3)c3ccccc32)c1 [Example 40, 1-{5-tert-Butyl-2-[3-(2-dimethylamino-ethoxy)-phenyl]-2H-pyrazol-3-yl}-3-[(1S,4R)-4-(3-piperidin-1-yl-[1,2,4]triazolo[4,3-a]pyridin-6-yloxy)-1,2,3,4-tetrahydro-naphthalen-1-yl]-urea] | < 10 | < 10
CN1CCN(Cc2cccc(-n3nc(C(C)(C)C)cc3NC(=O)N[C@H]3CC[C@@H](Oc4ccc5nnc(N6CCCCC6)n5c4)c4ccccc43)c2)CC1 [Example 41, 1-{5-tert-Butyl-2-[3-(4-methyl-piperazin-1-ylmethyl)-phenyl]-2H-pyrazol-3-yl}-3-[(1S,4R)-4-(3-piperidin-1-yl-[1,2,4]triazolo[4,3-a]pyridin-6-yloxy)-1,2,3,4-tetrahydro-naphthalen-1-yl]-urea] | < 10 | < 10
CN1CCC[C@H]1c1nnc2ccc(O[C@@H]3CC[C@H](NC(=O)Nc4cc(C(C)(C)C)nn4-c4cccc(OCCO)c4)c4ccccc43)cn12 [Example 42, 1-{5-tert-Butyl-2-[3-(2-hydroxy-ethoxy)-phenyl]-2H-pyrazol-3-yl}-3-{(1S,4R)-4-[3-((S)-1-methyl-pyrrolidin-2-yl)-[1,2,4]triazolo[4,3-a]pyridin-6-yloxy]-1,2,3,4-tetrahydro-naphthalen-1-yl}-urea] | < 10 | < 10
Cc1ccc(-n2nc(C(C)(C)C)cc2NC(=O)N[C@H]2CC[C@@H](Oc3ccc4nnc(N(C)CCN(C)C)n4c3)c3ccccc32)cc1 [Example 43, 1-(5-tert-Butyl-2-p-tolyl-2H-pyrazol-3-yl)-3-((1S,4R)-4-{3-[(2-dimethylamino-ethyl)-methyl-amino]-[1,2,4]triazolo[4,3-a]pyridin-6-yloxy}-1,2,3,4-tetrahydro-naphthalen-1-yl)-urea] | < 10 | < 10

Source: US9315503B2, “Kinase inhibitors” (CHIESI FARMACEUTICI S.p.A., priority 2011, dated 2016)
